# Assay results published in patent US20230374015A1, “INHIBITORS OF FIBROBLAST GROWTH FACTOR RECEPTOR KINASES” (Kinnate Biopharma Inc., priority 2020, published 2023).
# Target: FGFR2 (Homo sapiens, UniProt P21802)
# Assay: FGFR2 Kinase Protocol - Condition 2 (Reaction Biology HotSpot radiometric kinase assay, no preincubation)
# Format: biochemical
# Settings: poly[Glu:Tyr] (4:1) 0.2 mg/ml, ATP 100 microM, 2 hr room temperature
# Method in brief: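 Radiometric HotSpot format: FGFR2 (wildtype or V564F) with poly[Glu:Tyr] (4:1) at 0.2 mg/ml in HEPES pH 7.5 buffer with 1% DMSO; ATP plus [γ33P]ATP at 100 µM total, added without preincubation. Reactions ran 2 hr at room temperature, then filter-bound. IC50 from 10-dose, 3-fold series versus DMSO control.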
# Sequence of FGFR2 (P21802 22-821): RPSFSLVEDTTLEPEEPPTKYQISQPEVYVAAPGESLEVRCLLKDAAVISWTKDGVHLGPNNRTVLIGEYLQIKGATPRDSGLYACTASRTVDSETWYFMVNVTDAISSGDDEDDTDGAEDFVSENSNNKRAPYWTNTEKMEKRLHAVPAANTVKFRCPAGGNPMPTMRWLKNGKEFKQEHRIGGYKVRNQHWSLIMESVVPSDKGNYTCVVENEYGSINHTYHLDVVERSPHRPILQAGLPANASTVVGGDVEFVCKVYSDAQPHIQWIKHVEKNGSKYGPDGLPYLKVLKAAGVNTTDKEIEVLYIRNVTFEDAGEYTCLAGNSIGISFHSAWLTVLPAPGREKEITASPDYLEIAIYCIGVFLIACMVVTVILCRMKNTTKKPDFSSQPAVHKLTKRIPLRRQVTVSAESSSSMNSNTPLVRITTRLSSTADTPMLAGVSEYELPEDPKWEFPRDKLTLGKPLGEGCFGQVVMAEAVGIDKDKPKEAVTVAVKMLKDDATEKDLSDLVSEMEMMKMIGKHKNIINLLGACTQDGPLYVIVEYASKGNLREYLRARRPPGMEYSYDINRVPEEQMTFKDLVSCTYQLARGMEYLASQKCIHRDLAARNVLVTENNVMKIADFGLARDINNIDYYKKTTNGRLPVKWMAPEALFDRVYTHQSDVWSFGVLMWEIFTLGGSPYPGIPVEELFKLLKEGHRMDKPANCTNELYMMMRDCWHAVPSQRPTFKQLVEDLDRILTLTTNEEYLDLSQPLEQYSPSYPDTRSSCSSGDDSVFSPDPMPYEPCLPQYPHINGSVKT
row,IC50 [nM],SMILES
1,≤ 100,"C=CC(=O)N1C[C@@H](n2nc(C#Cc3cc4ncn(C)c4cc3Cl)c3c(N)nccc32)C[C@@H]1COC [Example 98, 1-[(2R,4S)-4-[4-Amino-3-[2-(6-chloro-1-methyl-1,3-benzodiazol-5-yl)ethynyl]pyrazolo[4,3-c]pyridin-1-yl]-2-(methoxymethyl)pyrrolidin-1-yl]prop-2-en-1-one]"
2,≤ 100,"C=CC(=O)N1C[C@@H](n2nc(C#Cc3cc4nc(C)[nH]c4cc3Cl)c3c(N)ncnc32)C[C@@H]1COC [Example 99, 1-[(2R,4S)-4-[4-Amino-3-[2-(6-chloro-2-methyl-1H-1,3-benzodiazol-5-yl)ethynyl]pyrazolo[3,4-d]pyrimidin-1-yl]-2-(methoxymethyl)pyrrolidin-1-yl]prop-2-en-1-one]"
3,≤ 100,"C=CC(=O)N1C[C@@H](n2nc(C#Cc3cc4nc(C)[nH]c4cc3Cl)c3c(N)nccc32)C[C@@H]1COC [Example 100, 1-[(2R,4S)-4-[4-Amino-3-[2-(6-chloro-2-methyl-1H-1,3-benzodiazol-5-yl)ethynyl]pyrazolo[4,3-c]pyridin-1-yl]-2-(methoxymethyl)pyrrolidin-1-yl]prop-2-en-1-one]"
4,≤ 100,"C=CC(=O)N1C[C@@H](n2cc(C#Cc3cc4nc(C)n(C)c4cc3Cl)c3c(N)ncnc32)C[C@@H]1COC [Example 101, 1-[(2R,4S)-4-[4-Amino-5-[2-(6-chloro-1,2-dimethyl-1,3-benzodiazol-5-yl)ethynyl]pyrrolo[2,3-d]pyrimidin-7-yl]-2-(methoxymethyl)pyrrolidin-1-yl]prop-2-en-1-one]"
5,≤ 100,"C=CC(=O)N1C[C@@H](n2nc(C#Cc3c(Cl)cc4c(nc(C)n4C)c3F)c3c(N)ncnc32)C[C@@H]1COC [Example 102, 1-((2R,4S)-4-(4-Amino-3-((6-chloro-4-fluoro-1,2-dimethyl-1H-benzo[d]imidazol-5-yl)ethynyl)-1H-pyrazolo[3,4-d]pyrimidin-1-yl)-2-(methoxymethyl)pyrrolidin-1-yl)prop-2-en-1-one]"
6,≤ 100,"C=CC(=O)N1C[C@@H](n2nc(C#Cc3c(Cl)cc4c(nc(C)n4C)c3F)c3c(N)nccc32)C[C@@H]1COC [Example 103, 1-((2R,4S)-4-(4-Amino-3-((6-chloro-4-fluoro-1,2-dimethyl-1H-benzo[d]imidazol-5-yl)ethynyl)-1H-pyrazolo[4,3-c]pyridin-1-yl)-2-(methoxymethyl)pyrrolidin-1-yl)prop-2-en-1-one]"
7,≤ 100,"C=CC(=O)N1C[C@@H](n2nc(C#Cc3c(Cl)cc4c(ncn4C)c3F)c3c(N)ncnc32)C[C@@H]1COC [Example 104, 1-[(2R,4S)-4-[4-Amino-3-[2-(6-chloro-4-fluoro-1-methyl-1,3-benzodiazol-5-yl)ethynyl]pyrazolo[3,4-d]pyrimidin-1-yl]-2-(methoxymethyl)pyrrolidin-1-yl]prop-2-en-1-one]"
8,≤ 100,"C=CC(=O)N1C[C@@H](n2nc(C#Cc3c(Cl)cc4c(ncn4C)c3F)c3c(N)nccc32)C[C@@H]1COC [Example 105, 1-[(2R,4S)-4-[4-Amino-3-[2-(6-chloro-4-fluoro-1-methyl-1,3-benzodiazol-5-yl)ethynyl]pyrazolo[4,3-c]pyridin-1-yl]-2-(methoxymethyl)pyrrolidin-1-yl]prop-2-en-1-one]"
9,≤ 100,"C=CC(=O)N1C[C@@H](n2cc(C#Cc3c(Cl)cc4c(ncn4C)c3F)c3c(N)ncnc32)C[C@@H]1COC [Example 106, 1-[(2R,4S)-4-[4-Amino-5-[2-(6-chloro-4-fluoro-1-methyl-1,3-benzodiazol-5-yl)ethynyl]pyrrolo[2,3-d]pyrimidin-7-yl]-2-(methoxymethyl)pyrrolidin-1-yl]prop-2-en-1-one]"
10,≤ 100,"C=CC(=O)N1C[C@@H](n2cc(C#Cc3c(F)cc4[nH]c(C)nc4c3F)c3c(N)ncnc32)C[C@@H]1COC [Example 107, 1-[(2R,4S)-4-[4-Amino-5-[2-(4,6-difluoro-2-methyl-1H-1,3-benzodiazol-5-yl)ethynyl]pyrrolo[2,3-d]pyrimidin-7-yl]-2-(methoxymethyl)pyrrolidin-1-yl]prop-2-en-1-one]"
11,≤ 100,"C=CC(=O)N1C[C@@H](n2nc(C#Cc3cc4ncn(C5CC5)c4cc3F)c3c(N)ncnc32)C[C@@H]1COC [Example 108, 1-[(2R,4S)-4-[4-Amino-3-[2-(1-cyclopropyl-6-fluoro-1,3-benzodiazol-5-yl)ethynyl]pyrazolo[3,4-d]pyrimidin-1-yl]-2-(methoxymethyl)pyrrolidin-1-yl]prop-2-en-1-one]"
12,≤ 100,"C=CC(=O)N1C[C@@H](n2nc(C#Cc3cc4ncn(C5CC5)c4cc3F)c3c(N)nccc32)C[C@@H]1COC [Example 109, 1-[(2R,4S)-4-[4-Amino-3-[2-(1-cyclopropyl-6-fluoro-1,3-benzodiazol-5-yl)ethynyl]pyrazolo[4,3-c]pyridin-1-yl]-2-(methoxymethyl)pyrrolidin-1-yl]prop-2-en-1-one]"
13,≤ 100,"C=CC(=O)N1C[C@@H](n2cc(C#Cc3cc4ncn(C5CC5)c4cc3F)c3c(N)ncnc32)C[C@@H]1COC [Example 110, 1-[(2R,4S)-4-[4-Amino-5-[2-(1-cyclopropyl-6-fluoro-1,3-benzodiazol-5-yl)ethynyl]pyrrolo[2,3-d]pyrimidin-7-yl]-2-(methoxymethyl)pyrrolidin-1-yl]prop-2-en-1-one]"
14,≤ 100,"C=CC(=O)N1C[C@@H](n2nc(C#Cc3ccc4scnc4c3)c3c(N)ncnc32)C[C@@H]1COC [Example 112, 1-((2R,4S)-4-(4-Amino-3-(benzo[d]thiazol-5-ylethynyl)-1H-pyrazolo[3,4-d]pyrimidin-1-yl)-2-(methoxymethyl)pyrrolidin-1-yl)prop-2-en-1-one]"
15,≤ 100,"C=CC(=O)N1C[C@@H](n2cc(C#Cc3c(Cl)cc4c(nc(C)n4C)c3F)c3c(N)ncnc32)C[C@@H]1COC [Example 113, 1-((2R,4S)-4-(4-Amino-5-((6-chloro-4-fluoro-1,2-dimethyl-1H-benzo[d]imidazol-5-yl)ethynyl)-7H-pyrrolo[2,3-d]pyrimidin-7-yl)-2-(methoxymethyl)pyrrolidin-1-yl)prop-2-en-1-one]"
16,100 to 1000,"C=CC(=O)N1C[C@@H](n2nc(C#Cc3ccn4ncnc4c3)c3c(N)ncnc32)C[C@@H]1COC [Example 114, 1-[(2R,4S)-4-[4-Amino-3-(2-[[1,2,4]triazolo[1,5-a]pyridin-7-yl]ethynyl)pyrazolo[3,4-d]pyrimidin-1-yl]-2-(methoxymethyl)pyrrolidin-1-yl]prop-2-en-1-one]"
17,≤ 100,"C=CC(=O)N1C[C@@H](n2nc(C#Cc3ccc4ocnc4c3)c3c(N)ncnc32)C[C@@H]1COC [Example 115, 1-[(2R,4S)-4-[4-Amino-3-[2-(1,3-benzoxazol-5-yl)ethynyl]pyrazolo[3,4-d]pyrimidin-1-yl]-2-(methoxymethyl)pyrrolidin-1-yl]prop-2-en-1-one]"
18,≤ 100,"C=CC(=O)N1C[C@@H](n2nc(C#Cc3c(Cl)cc4c(ncn4CC)c3F)c3c(N)ncnc32)C[C@@H]1COC [Example 116, 1-[(2R,4S)-4-[4-Amino-3-[2-(6-chloro-1-ethyl-4-fluoro-1,3-benzodiazol-5-yl)ethynyl]pyrazolo [3,4-d]pyrimidin-1-yl]-2-(methoxymethyl)pyrrolidin-1-yl]prop-2-en-1-one]"
19,≤ 100,"C=CC(=O)N1C[C@@H](n2nc(C#Cc3c(Cl)cc4c(ncn4CC)c3F)c3c(N)nccc32)C[C@@H]1COC [Example 117, 1-[(2R,4S)-4-[4-Amino-3-[2-(6-chloro-1-ethyl-4-fluoro-1,3-benzodiazol-5-yl)ethynyl]pyrazolo[4,3-c]pyridin-1-yl]-2-(methoxymethyl)pyrrolidin-1-yl]prop-2-en-1-one]"
20,≤ 100,"C=CC(=O)N1C[C@@H](n2cc(C#Cc3c(Cl)cc4c(ncn4CC)c3F)c3c(N)ncnc32)C[C@@H]1COC [Example 118, 1-1-[(2R,4S)-4-[4-Amino-5-[2-(6-chloro-1-ethyl-4-fluoro-1,3-benzodiazol-5-yl)ethynyl]pyrrolo[2,3-d]pyrimidin-7-yl]-2-(methoxymethyl)pyrrolidin-1-yl]prop-2-en-1-one]"
21,≤ 100,"C=CC(=O)N1C[C@@H](n2nc(C#Cc3cc4ncoc4cc3F)c3c(N)ncnc32)C[C@@H]1COC [Example 119, 1-[(2R,4S)-4-[4-Amino-3-[2-(6-fluoro-1,3-benzoxazol-5-yl)ethynyl]pyrazolo[3,4-d]pyrimidin-1-yl]-2-(methoxymethyl)pyrrolidin-1-yl]prop-2-en-1-one]"
22,≤ 100,"C=CC(=O)N1C[C@@H](n2nc(C#Cc3cc4ncn(C)c4c(F)c3F)c3c(N)ncnc32)C[C@@H]1COC [Example 120, 1-((2R,4S)-4-(4-Amino-3-((6,7-difluoro-1-methyl-1H-benzo[d]imidazol-5-yl)ethynyl)-1H-pyrazolo[3,4-d]pyrimidin-1-yl)-2-(methoxymethyl)pyrrolidin-1-yl)prop-2-en-1-one]"
23,≤ 100,"C=CC(=O)N1C[C@@H](n2nc(C#Cc3cc4ncn(C)c4c(F)c3Cl)c3c(N)ncnc32)C[C@@H]1COC [Example 121, 1-[(2R,4S)-4-[4-Amino-3-[2-(6-chloro-7-fluoro-1-methyl-1,3-benzodiazol-5-yl)ethynyl]pyrazolo[3,4-d]pyrimidin-1-yl]-2-(methoxymethyl)pyrrolidin-1-yl]prop-2-en-1-one]"
24,≤ 100,"C=CC(=O)N1C[C@@H](n2nc(C#Cc3cc4nc(C)n(C)c4c(F)c3F)c3c(N)ncnc32)C[C@@H]1COC [Example 122, 1-[(2R,4S)-4-[4-Amino-3-[2-(6,7-difluoro-1,2-dimethyl-1,3-benzodiazol-5-yl)ethynyl]pyrazolo[3,4-d]pyrimidin-1-yl]-2-(methoxymethyl)pyrrolidin-1-yl]prop-2-en-1-one]"
25,≤ 100,"C=CC(=O)N1C[C@@H](n2nc(C#Cc3cc4ncn(CC)c4c(F)c3F)c3c(N)ncnc32)C[C@@H]1COC [Example 123, 1-[(2R,4S)-4-[4-Amino-3-[2-(1-ethyl-6,7-difluoro-1,3-benzodiazol-5-yl)ethynyl]pyrazolo[3,4-d]pyrimidin-1-yl]-2-(methoxymethyl)pyrrolidin-1-yl]prop-2-en-1-one]"
